Where two headings read alike, the source gives them in different places.
Experiments:
[1] = test system: Klebsiella pneumoniae NR-41920; test: Effect on bacterial membrane (SEM); assay type: cell-based; conditions: 5×MIC for 1.5 h
Method: Effect on bacterial membrane. […] The bacteria were collected by centrifugation at 5000 rcf for 10 min, fixed in 2.5% glutaraldehyde solution at 4° C., and placed on poly-1-lysine coated coverslip. After 1 h, the coverslip was rinsed three times with water (5 min each) and incubated in 2% Osmium tetroxide for 30 min. SEM imaging was performed as described in previous section.

J774a.1 macrophages [2] = test: Cytotoxicity by propidium iodide staining and flow cytometry; assay type: cell-based; conditions: equivalent to 50-150 μg/mL PMB, 24 h
Method: As a cationic polypeptide, PMB is known to be effective in neutralizing LPS as early as in 1967, but its systemic application is hampered by dose-limiting nephro- and neurotoxicity. PMB manifests the toxicity via the increased membrane permeability, resulting in increased influx of ions and water and subsequent cell swelling and lysis. To test if the toxicity can be reduced by supplying PMB as a NP-bound form, THP-1 monocytes or J774a.1 macrophages were incubated with D-TZP or free PMB at a concentration equivalent to 50-150 μg/mL PMB for 24 h, stained with propidium iodide (PI), which penetrates damaged cell membrane but not intact membrane, and analyzed with flow cytometry. […] Substantial reduction of membrane damage is attributable to the surface-bound ZWC, which provides a negatively charged cloud beyond the remit of PMB due to the large size, attenuating direct exposure of PMB to cell membrane.
Cytotoxicity of PMB and D-TZP. Cytotoxic concentration range of free PMB was first determined with THP1-XBlue-MD2-CD14 cells by the MTT assay. […] The PI fluorescence of 10,000 cells was measured with the BD Accuri C6 flow cytometer (BD Biosciences, San Jose, CA) via the FL-2 detector. Nanoparticles and cell debris were excluded by gating, but all cell population (dead or alive) was analyzed. […]

J774a.1 macrophages [3] = test: Effect on cell membrane, confocal microscopy with wheat germ agglutinin; assay type: cell-based; conditions: eq. to 150 μg/mL PMB, 12 h
Method: Effect of PMB and D-TZP on cell membrane. The effect of D-TZP on J774A.1 cell membrane was monitored by two methods (scanning electron microscopy and confocal microscopy). For scanning electron microscopy, J774A.1 macrophages were plated in a 6-well plate at a density of 3×10^5 cells per well with 3 mL of complete medium. After overnight incubation at 37° C. in a 5% CO2 atmosphere, the cells were treated with either free PMB or D-TZP at a concentration equivalent to 150 μg/mL PMB for 12 h. The cells were centrifuged at 233 relative centrifugal force (rcf) for 3 min. The medium was removed, and 2.5% glutaraldehyde solution was added for fixation overnight at 4° C. The cells were then rinsed three times with water (5 min each) and incubated in 2% Osmium tetroxide for 1 h. After rinsing another three times with water (5 min each), the cells were dehydrated with a series of ethanol gradients (50%, 75%, 95%) for 10 minutes at each step. The dehydrated cells were rinsed with 100% ethanol three times for 10 minutes each time, stored in a 1:1 mixture of HMDS and ethanol in 1:1 for 30 min, and rinsed with 100% HMDS for 30 min twice. After overnight drying, the cells were placed on a carbon tape attached to an aluminum stud and coated with platinum for SEM analysis. The morphology of treated J774a.1 cells then was observed by a FEI NOVA NanoSEM scanning electron microscope (SEM). […]

C57BL/6 male mice = conditions: known value, cited from earlier work

## polymyxin B [PMB]
[1]
  bacterial membrane morphology by SEM: induced deformation of bacterial membrane
J774a.1 macrophages [2]
  PI fluorescence (membrane damage): dose-dependent PI fluorescence signal
J774a.1 macrophages [3]
  cell membrane staining with wheat germ agglutinin: significant membrane damage
C57BL/6 male mice; IP
  LD50: 20 mg/kg
C57BL/6 male mice; IV
  LD50: 5 mg/kg

Source: patent US11865158B2, “Process and composition matter of nanoparticle formulation for systemic treatment of sepsis” (PURDUE RESEARCH FOUNDATION, priority 2019, dated 2024)
